Experiments:
ALDH1A1 [1] = molecular target: T1, ALDH1A1 (Homo sapiens, UniProt P00352); test: X-ray crystal structure at […] Å (complex with NAD and CM38); format: binding
T1 sequence (P00352 2-501): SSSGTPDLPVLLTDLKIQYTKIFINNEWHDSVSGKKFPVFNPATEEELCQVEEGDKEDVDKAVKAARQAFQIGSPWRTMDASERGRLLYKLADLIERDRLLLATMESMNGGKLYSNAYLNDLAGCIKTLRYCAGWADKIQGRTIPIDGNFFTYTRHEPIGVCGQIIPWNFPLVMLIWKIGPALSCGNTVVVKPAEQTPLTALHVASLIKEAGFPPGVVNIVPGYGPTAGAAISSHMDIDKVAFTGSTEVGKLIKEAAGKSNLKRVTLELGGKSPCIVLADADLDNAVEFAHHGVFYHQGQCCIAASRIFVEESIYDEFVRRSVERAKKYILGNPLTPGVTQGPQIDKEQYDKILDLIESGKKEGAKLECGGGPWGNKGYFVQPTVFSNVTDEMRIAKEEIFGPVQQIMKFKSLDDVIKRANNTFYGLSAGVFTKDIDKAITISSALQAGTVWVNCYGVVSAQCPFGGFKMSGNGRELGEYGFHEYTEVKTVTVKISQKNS

ALDH1B1 = molecular target: T2, ALDH1B1 (Homo sapiens, UniProt P30837); test: biochemical; parameters: NAD(P)H formation at 340 nm, purified recombinant ALDH isoenzymes; conditions: read-out: ALDH1B1 % activity versus control at 20 uM
T2 sequence (P30837 1-517): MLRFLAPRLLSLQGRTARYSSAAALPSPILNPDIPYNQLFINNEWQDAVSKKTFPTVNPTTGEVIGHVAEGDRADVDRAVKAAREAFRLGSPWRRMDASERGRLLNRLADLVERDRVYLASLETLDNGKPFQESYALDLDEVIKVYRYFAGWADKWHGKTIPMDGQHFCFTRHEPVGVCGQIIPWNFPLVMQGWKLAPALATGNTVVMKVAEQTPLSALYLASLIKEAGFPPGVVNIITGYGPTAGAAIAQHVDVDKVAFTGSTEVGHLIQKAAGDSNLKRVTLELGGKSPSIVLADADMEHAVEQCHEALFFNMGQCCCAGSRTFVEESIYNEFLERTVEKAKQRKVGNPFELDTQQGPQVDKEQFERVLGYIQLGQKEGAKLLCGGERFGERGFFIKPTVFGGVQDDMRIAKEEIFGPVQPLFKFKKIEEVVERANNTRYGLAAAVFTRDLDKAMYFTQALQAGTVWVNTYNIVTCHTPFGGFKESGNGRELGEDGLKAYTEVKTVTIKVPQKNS
Procedure: (§1) Human ALDH1A1, ALDH1A2, and ALDH1A3 were prepared and purified as previously described. The inhibition of ALDH activity by compounds and the IC50 curves were determined by measuring the formation of NAD(P)H spectrophotometrically at 340 nm (molar extinction coefficient of 6200 M^−1 cm^−1) on a Beckman DU-640 as well as a Spectramax 340 PC spectrophotometer (GMI, Ramsey, NJ, USA) using a purified recombinant enzyme. The reaction components for assays with ALDH1A enzymes consisted of 100–200 nM enzyme, 200 µM NAD+, 100 µM propionaldehyde, and 1% DMSO in 25 mM BES buffer at pH 7.5. All assays were performed at 25 °C and were initiated by the addition of substrate after a 2 min incubation period. The purification of and the reaction conditions for the other ALDH isoenzymes were as described in [27]. […] The data were fit to the four-parameter EC50 equation using SigmaPlot (v14), and the values represent the means/SEM of three independent experiments (n = 3). Figure S1. X-Ray Crystallography of CM38 with ALDH1A1 and characterization of inhibitor activ-ity (A). Structure of Human ALDH1A1 with bound compound CM38. […] (B). Inhibition of ALDH activity by compounds and IC50 curves were determined by measuring the formation of NAD(P)H spectro-photometrically at 340 nm using purified recombinant enzymes. (C). […]

ALDH2 = molecular target: T3, ALDH2 (Homo sapiens, UniProt P05091); test: biochemical; parameters: NAD(P)H formation at 340 nm, purified recombinant ALDH isoenzymes; conditions: read-out: ALDH2 % activity versus control at 20 uM
T3 sequence (P05091 1-517): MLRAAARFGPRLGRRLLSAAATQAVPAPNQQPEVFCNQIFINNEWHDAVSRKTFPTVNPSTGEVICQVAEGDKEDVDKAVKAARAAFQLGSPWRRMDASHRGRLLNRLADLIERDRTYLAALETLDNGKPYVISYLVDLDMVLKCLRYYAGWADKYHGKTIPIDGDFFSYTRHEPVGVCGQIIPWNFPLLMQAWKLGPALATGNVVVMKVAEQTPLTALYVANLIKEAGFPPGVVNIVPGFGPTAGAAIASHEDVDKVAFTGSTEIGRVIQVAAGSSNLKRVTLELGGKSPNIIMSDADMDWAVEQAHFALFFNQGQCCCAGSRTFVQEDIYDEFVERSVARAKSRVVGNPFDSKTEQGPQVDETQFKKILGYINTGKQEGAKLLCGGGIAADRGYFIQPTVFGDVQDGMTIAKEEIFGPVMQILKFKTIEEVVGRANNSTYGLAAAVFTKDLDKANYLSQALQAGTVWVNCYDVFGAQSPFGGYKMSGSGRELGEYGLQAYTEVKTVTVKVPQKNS
Procedure: as §1

ALDH1A2 = molecular target: T4, ALDH1A2 (Homo sapiens, UniProt O94788); test: biochemical; parameters: NAD(P)H formation at 340 nm, purified recombinant ALDH1A enzyme, propionaldehyde and NAD+; conditions: read-out: ALDH1A2 % activity versus control at 20 uM
T4 sequence (O94788 1-518): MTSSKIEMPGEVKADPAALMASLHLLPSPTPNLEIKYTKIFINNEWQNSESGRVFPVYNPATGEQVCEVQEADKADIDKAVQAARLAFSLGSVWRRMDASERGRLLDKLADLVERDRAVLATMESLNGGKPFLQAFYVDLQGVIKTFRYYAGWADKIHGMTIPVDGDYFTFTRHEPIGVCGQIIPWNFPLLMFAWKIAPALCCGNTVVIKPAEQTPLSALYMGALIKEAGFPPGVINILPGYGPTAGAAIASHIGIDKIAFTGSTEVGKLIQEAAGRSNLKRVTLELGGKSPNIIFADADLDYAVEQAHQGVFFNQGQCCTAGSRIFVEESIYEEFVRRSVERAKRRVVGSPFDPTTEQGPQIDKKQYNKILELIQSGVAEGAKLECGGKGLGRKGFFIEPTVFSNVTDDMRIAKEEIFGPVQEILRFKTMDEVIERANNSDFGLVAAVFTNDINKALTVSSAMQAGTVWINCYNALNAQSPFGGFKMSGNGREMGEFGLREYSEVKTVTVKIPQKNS
Procedure: as §1

ALDH1A3 = molecular target: T5, ALDH1A3 (Homo sapiens, UniProt P47895); test: biochemical; parameters: NAD(P)H formation at 340 nm, purified recombinant ALDH1A enzyme, propionaldehyde and NAD+; conditions: read-out: ALDH1A3 % activity versus control at 20 uM
T5 sequence (P47895 1-512): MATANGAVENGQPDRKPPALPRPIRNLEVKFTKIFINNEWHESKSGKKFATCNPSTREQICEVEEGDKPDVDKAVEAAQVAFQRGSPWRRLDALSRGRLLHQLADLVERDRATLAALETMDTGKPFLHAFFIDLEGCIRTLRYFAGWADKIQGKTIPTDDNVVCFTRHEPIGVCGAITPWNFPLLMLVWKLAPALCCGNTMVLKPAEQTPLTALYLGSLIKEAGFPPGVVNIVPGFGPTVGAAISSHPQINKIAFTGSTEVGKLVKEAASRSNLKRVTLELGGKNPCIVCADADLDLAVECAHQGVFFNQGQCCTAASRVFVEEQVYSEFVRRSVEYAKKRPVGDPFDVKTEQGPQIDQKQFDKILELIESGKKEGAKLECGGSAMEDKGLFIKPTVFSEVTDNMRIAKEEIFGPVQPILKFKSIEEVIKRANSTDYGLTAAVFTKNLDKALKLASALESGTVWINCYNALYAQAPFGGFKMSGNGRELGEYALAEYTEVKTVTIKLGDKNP
Procedure: as §1

ALDH1A1 [2] = molecular target: T1, ALDH1A1; test: purified recombinant enzyme, NAD(P)H formation at […] nm with propionaldehyde as substrate; format: biochemical

remaining activity at 20 µM (ALDH1B1)	remaining activity at 20 µM (ALDH2)	remaining activity at 20 µM (ALDH1A2)	remaining activity at 20 µM (ALDH1A3)	IC50 (ALDH1A1 [2])	SMILES	X-ray crystal structure at 1.8 Å (complex with NAD and CM38) (ALDH1A1 [1])
–	–	–	–	–	NC(=O)c1ccc[n+]([C@@H]2O[C@H](COP(=O)([O-])OP(=O)(O)OC[C@H]3O[C@@H](n4cnc5c(N)ncnc54)[C@H](O)[C@@H]3O)[C@@H](O)[C@H]2O)c1 [NAD]	we determined the structure of ALDH1A1 in a complex with both NAD and CM38 by X-ray crystallography
67 ± 3.9%	76 ± 20%	63 ± 4.2%	85 ± 4%	470 nM	Cc1c(C(=O)N2CCCCC2)oc2ccc3c(c12)C(=O)CC1(CCCCCC1)O3 [compound 974]	–
